In PubChem BioAssay AID504505 (The Scripps Research Institute Molecular Screening Center, 2011):

Test system: Abhydrolase domain-containing protein 11 (ABHD11), mouse
Experiment: ABHD11 inhibition in mouse cells, late-stage follow-up, selectivity assay for LYPLA1 inhibitor project, cell-based, gel-based fluorescent ABPP (AID 504505)
Details: ABHD11 labeling, at 0.03 µM, active compounds read high

- inhibition: 100%
Compound: CCC1CCCCN1C(=O)n1ncc(C(O)(c2ccccc2)c2ccccc2)n1 (stereo unspecified)
